Data published in PubChem BioAssay AID488867 (Broad Institute, 2010).
Active and inactive are the calls of the source.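 Rule for the calls: active = a rising curve with AC50 no higher than ten times the top valid dose of that compound; inconclusive = flat curve between 30 and 70 percent, or failed fit; inactive = the rest.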

Test system: not listed separately
Experiment: protection from cytokine-driven beta-cell apoptosis, dose response, JC-1 fluorescence, INS-1E, dry powder, set 2 (AID 488867)
Conditions: INS-1E cytokine-induced apoptosis, JC-1 mitochondrial potential, 48 h; at 23.5 µM (top of the series)

Question: For `Cc1ccc(S(=O)(=O)N(C)C[C@@H]2Oc3c(NC(=O)Nc4cccc5ccccc45)cccc3C(=O)N([C@H](C)CO)C[C@H]2C)cc1`, which protection from cytokine-induced depolarization is on record?
Answer: 7.94% (inactive)

Same assay, conditions: INS-1E cytokine-induced apoptosis, JC-1 mitochondrial potential, 48 h; at 26 µM (top of the series)

Question: Which protection from cytokine-induced depolarization does the source give for `COc1ccc(S(=O)(=O)N(C)C[C@@H]2Oc3c(NC(=O)c4ccncc4)cccc3C(=O)N([C@@H](C)CO)C[C@H]2C)cc1` here?
Answer: -1.06% (inactive)

Question: For `Cc1ccc(S(=O)(=O)N(C)C[C@@H]2Oc3c(NC(=O)Nc4ccccc4)cccc3C(=O)N([C@H](C)CO)C[C@H]2C)cc1`, which protection from cytokine-induced depolarization is on record?
Answer: 11.2% (inactive)

Question: With `COc1ccc(S(=O)(=O)N(C)C[C@@H]2Oc3c(NC(=O)Nc4cccc5ccccc45)cccc3C(=O)N([C@@H](C)CO)C[C@H]2C)c(OC)c1` as the molecule, how does the protection from cytokine-induced depolarization read?
Answer: 11.3% (inactive)

Question: With `C[C@@H]1CN([C@@H](C)CO)C(=O)c2cccc(NC(=O)Nc3cccc4ccccc34)c2O[C@H]1CN(C)S(=O)(=O)c1ccccc1` as the molecule, how does the protection from cytokine-induced depolarization read?
Answer: 8.02% (inactive)

Question: With `COc1ccc(S(=O)(=O)N(C)C[C@@H]2Oc3c(NS(=O)(=O)c4cn(C)cn4)cccc3C(=O)N([C@@H](C)CO)C[C@H]2C)cc1` as the molecule, how does the protection from cytokine-induced depolarization read?
Answer: -9.04% (inactive)

Question: For `COc1ccccc1S(=O)(=O)N(C)C[C@@H]1Oc2c(NC(=O)Nc3cccc4ccccc34)cccc2C(=O)N([C@@H](C)CO)C[C@H]1C`, which protection from cytokine-induced depolarization is on record?
Answer: -3.43% (inactive)

Question: With `COc1ccc(S(=O)(=O)N(C)C[C@@H]2Oc3c(NC(=O)c4cnccn4)cccc3C(=O)N([C@@H](C)CO)C[C@H]2C)cc1` as the molecule, how does the protection from cytokine-induced depolarization read?
Answer: -9.35% (inactive)

Test system: INS-1E cytokine-induced apoptosis, JC-1 mitochondrial potential, 48 h
Experiment: as above
Conditions: not given

Question: For `Cc1ccc(S(=O)(=O)N(C)C[C@@H]2Oc3c(NC(=O)Nc4ccccc4)cccc3C(=O)N([C@@H](C)CO)C[C@H]2C)cc1`, which AC50 is on record?
Answer: > 26 µM (inactive)

Question: With `COc1ccc(S(=O)(=O)N(C)C[C@@H]2Oc3c(NC(=O)Nc4ccccc4)cccc3C(=O)N([C@H](C)CO)C[C@H]2C)cc1` as the molecule, how does the AC50 read?
Answer: > 26 µM (inactive)

Question: Which AC50 does the source give for `COc1ccc(S(=O)(=O)N(C)C[C@H]2Oc3c(NC(=O)Nc4cccc5ccccc45)cccc3C(=O)N([C@@H](C)CO)C[C@@H]2C)cc1` here?
Answer: > 26 µM (inactive)

Question: For `COc1ccc(S(=O)(=O)N(C)C[C@@H]2Oc3c(NC(=O)Nc4cccc5ccccc45)cccc3C(=O)N([C@H](C)CO)C[C@H]2C)cc1`, which AC50 is on record?
Answer: > 23.5 µM (inactive)
